Key:
Assay type in all cases: biochemical
PDX3 (At5g49970) = molecular target: T1, PDX3 (At5g49970) (Arabidopsis thaliana, UniProt Q9LTX3); experiment: coupled spectrophotometric NADHX repair assay, […] and […] nm; details: epimerization by NNRE domain; coupled to NNRD; 1 mM ATP, 2 mM MgCl2, 5 mM KCl, Tris-HCl pH 8, 25 °C; racemic NADHX
T1 construct: gene PPOX1; cDNA without predicted transit peptide (residues 2 to 73 removed), N-terminal His6 tag, pET-28a, E. coli BL21(DE3); NNRE and POX domains both present
T1 sequence (Q9LTX3 74-530): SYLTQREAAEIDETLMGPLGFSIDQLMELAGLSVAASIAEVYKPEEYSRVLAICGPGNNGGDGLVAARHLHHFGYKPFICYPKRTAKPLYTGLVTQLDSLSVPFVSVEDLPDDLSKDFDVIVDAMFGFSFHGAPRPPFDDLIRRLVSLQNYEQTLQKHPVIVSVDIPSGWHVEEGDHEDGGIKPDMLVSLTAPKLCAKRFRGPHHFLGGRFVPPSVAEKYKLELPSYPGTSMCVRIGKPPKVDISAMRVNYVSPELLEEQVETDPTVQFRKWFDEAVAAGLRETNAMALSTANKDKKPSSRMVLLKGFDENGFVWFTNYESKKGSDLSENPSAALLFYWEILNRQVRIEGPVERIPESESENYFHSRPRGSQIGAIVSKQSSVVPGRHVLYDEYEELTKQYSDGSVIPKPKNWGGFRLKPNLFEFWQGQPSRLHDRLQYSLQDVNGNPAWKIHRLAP

NNRD (dehydratase) = molecular target: T2, NNRD (dehydratase) (Arabidopsis thaliana, UniProt Q94AF2); experiment: spectrophotometric dehydratase assay, […] and […] nm; details: 1 mM ATP, 2 mM MgCl2, 5 mM KCl, Tris-HCl pH 8, 25 °C; racemic NADHX
T2 construct: gene At5g19150; no transit peptide (residues 2 to 45 removed), C-terminal His6 tag, pET-24b, E. coli BL21(DE3); locus printed as At5g12150, probably a misprint of At5g19150
T2 sequence (Q94AF2 46-365): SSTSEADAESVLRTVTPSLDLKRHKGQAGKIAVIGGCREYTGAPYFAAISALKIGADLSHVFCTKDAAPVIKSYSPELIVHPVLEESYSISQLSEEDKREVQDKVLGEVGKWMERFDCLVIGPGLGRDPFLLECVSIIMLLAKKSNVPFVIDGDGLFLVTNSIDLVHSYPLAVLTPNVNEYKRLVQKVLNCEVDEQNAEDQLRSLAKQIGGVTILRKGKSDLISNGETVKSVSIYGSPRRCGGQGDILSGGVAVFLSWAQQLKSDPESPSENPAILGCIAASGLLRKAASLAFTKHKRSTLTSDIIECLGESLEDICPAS

[1] = molecular target: T3, Arabidopsis NR2 (NIA2, At1g37130) (Arabidopsis thaliana, UniProt P11035); experiment: nitrate reductase activity with APADH, absorbance at […] nm; details: electron donor replacing NADH, 0.1 mM; 10 mM potassium nitrate, 0.005 mM FAD, phosphate pH 7.5, 25 °C
T3 construct: commercial recombinant enzyme expressed and purified from Pichia pastoris
T3 sequence (P11035 1-917): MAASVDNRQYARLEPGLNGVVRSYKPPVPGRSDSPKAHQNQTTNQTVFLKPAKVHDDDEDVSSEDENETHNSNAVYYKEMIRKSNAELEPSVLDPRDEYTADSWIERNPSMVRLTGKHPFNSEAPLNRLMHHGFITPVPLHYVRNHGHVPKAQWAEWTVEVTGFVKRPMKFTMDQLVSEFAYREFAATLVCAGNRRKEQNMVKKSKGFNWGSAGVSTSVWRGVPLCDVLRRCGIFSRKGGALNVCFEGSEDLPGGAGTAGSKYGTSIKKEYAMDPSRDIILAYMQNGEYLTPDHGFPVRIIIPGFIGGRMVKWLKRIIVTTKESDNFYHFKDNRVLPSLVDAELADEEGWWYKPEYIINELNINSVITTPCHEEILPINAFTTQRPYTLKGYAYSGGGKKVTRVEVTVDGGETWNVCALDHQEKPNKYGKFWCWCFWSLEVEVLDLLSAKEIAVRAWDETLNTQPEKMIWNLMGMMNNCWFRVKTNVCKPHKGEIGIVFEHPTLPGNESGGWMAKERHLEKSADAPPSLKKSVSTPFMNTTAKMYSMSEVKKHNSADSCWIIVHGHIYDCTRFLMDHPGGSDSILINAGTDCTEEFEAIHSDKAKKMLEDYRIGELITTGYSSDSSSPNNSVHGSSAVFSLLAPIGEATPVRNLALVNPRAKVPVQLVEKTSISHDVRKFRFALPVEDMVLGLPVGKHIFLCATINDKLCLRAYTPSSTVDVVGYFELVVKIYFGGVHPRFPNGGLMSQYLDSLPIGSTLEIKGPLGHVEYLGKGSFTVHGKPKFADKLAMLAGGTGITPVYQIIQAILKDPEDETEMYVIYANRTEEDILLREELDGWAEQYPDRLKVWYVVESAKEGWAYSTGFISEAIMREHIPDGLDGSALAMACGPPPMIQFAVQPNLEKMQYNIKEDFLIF

In the case of NC(=O)C1=CN([C@@H]2O[C@H](COP(=O)(O)OP(=O)(O)OC[C@H]3O[C@@H](n4cnc5c(N)ncnc54)[C@H](O)[C@@H]3O)[C@@H](O)[C@H]2O)[C@H](O)CC1 (mixture of isomers) [(R)-NADHX], the “coupled spectrophotometric NADHX repair assay, 290 and 340 nm” value (PDX3 (At5g49970)) is reported as “leads to epimerization of (R)-NADHX in the racemate to (S)-NADHX by the NNRE domain”.
NC(=O)C1=CN([C@@H]2O[C@H](COP(=O)(O)OP(=O)(O)OC[C@H]3O[C@@H](n4cnc5c(N)ncnc54)[C@H](O)[C@@H]3O)[C@@H](O)[C@H]2O)[C@@H](O)CC1 (mixture of isomers) [(S)-NADHX] was tested, and the “spectrophotometric dehydratase assay, 290 and 340 nm” value (NNRD (dehydratase)) was “(S)-NADHX within a racemic mixture of NADHX is dehydrated to NADH by NNRD”.
CC(=O)C1=CN([C@@H]2O[C@H](COP(=O)(O)OP(=O)(O)OC[C@H]3O[C@@H](n4cnc5c(N)ncnc54)[C@H](O)[C@@H]3O)[C@@H](O)[C@H]2O)C=CC1 [APADH] was tested, and the “nitrate reductase activity with APADH, absorbance at 363 nm” value [1] was “the latter was replaced with its analog, 3-acetylpyridine-adenine dinucleotide (APADH”.

Reference: paper PMC10517258, “PYRIDOX(AM)INE 5′-PHOSPHATE OXIDASE3 of Arabidopsis thaliana maintains carbon/nitrogen balance in distinct environmental conditions” (Plant Physiology, 2023)
